Two molecules from article PMC12157126, “Saturation kinetics and specificity of transporters for L-arginine and asymmetric dimethylarginine (ADMA) at the blood-brain and blood-CSF barriers” (PLOS One, 2025) can be followed below.

Data set [1] deals with blood-brain and blood-CSF barriers. In words: In situ brain/choroid plexus perfusion with capillary depletion: CNS uptake of [3H]-arginine in absence and presence of transporter inhibitors. The format is in vivo, adult male BALB/c mice. As for the experimental part:
(§1) The in situ brain/choroid plexus perfusion method was performed as previously described and will only be briefly detailed here. […] At the end of the perfusion period a CSF sample was taken from the cisterna magna, the animal was decapitated, the brain removed and samples taken under a Leica S4E L2 stereomicroscope (Leica; Buckinghamshire, UK). […] The circumventricular organs (CVOs) including the choroid plexus, pituitary gland and pineal gland were also sampled. Brain samples were also taken for capillary depletion analysis.
(§2) Both the physiological capillary depletion buffer and dextran solution were maintained at 4 °C to halt any cell metabolism and transport processes, and to reduce any cellular or protein damage due to heat generated from the homogenisation process. The whole brain homogenate was then taken for dextran density centrifugation (5,400 x g) and 4 °C to produce an endothelial cell-enriched pellet and supernatant containing brain parenchyma.
(§3) The transporter proteins these inhibitors target are listed in S1 Table in S1 File.
(§4) % change=RTissue−RInhibition /RTissue× 100 (2)

The test system is the same in data set [2]. Kind of data set: In situ brain/choroid plexus perfusion with capillary depletion: CNS uptake of [3H]-ADMA in absence and presence of transporter inhibitors. To be noted: for RBrain of [3H]-ADMA in presence of inhibitor: 10 min, sucrose corrected; for RBrain of [3H]-ADMA in presence of inhibitor / % inhibition of [3H]-ADMA uptake: L-homoarginine 20 mM. The procedure: as §1, §2, §3, §4

Setting [3] is: caudate nucleus, BCH 4 mM, α-methyl-D,L-tryptophan 500 μM, L-phenylalanine 200 μM, L-leucine 5 mM, harmaline 2 mM.
The mark [4] stands for this setting: choroid plexus, BCH 4 mM, L-phenylalanine 200 μM, L-leucine 5 mM, harmaline 2 mM.
[5] abbreviates: frontal cortex, BCH 4 mM, α-methyl-D,L-tryptophan 500 μM, L-phenylalanine 200 μM, L-leucine 5 mM, harmaline 2 mM.
The mark [6] stands for this setting: hippocampus, BCH 4 mM, α-methyl-D,L-tryptophan 500 μM, L-phenylalanine 200 μM, L-leucine 5 mM, harmaline 2 mM.
[7] abbreviates: hypothalamus, BCH 4 mM, α-methyl-D,L-tryptophan 500 μM, L-phenylalanine 200 μM, L-leucine 5 mM, harmaline 2 mM.
Setting [8] is: occipital cortex, BCH 4 mM, α-methyl-D,L-tryptophan 500 μM, L-phenylalanine 200 μM, L-leucine 5 mM, harmaline 2 mM.
Where [9] appears, read: pineal gland, BCH 4 mM, α-methyl-D,L-tryptophan 500 μM, L-phenylalanine 200 μM, L-leucine 5 mM, harmaline 2 mM.
The mark [10] stands for this setting: pituitary gland, BCH 4 mM, L-phenylalanine 200 μM, L-leucine 5 mM, harmaline 2 mM.
[11] abbreviates: thalamus, BCH 4 mM, α-methyl-D,L-tryptophan 500 μM, L-phenylalanine 200 μM, L-leucine 5 mM, harmaline 2 mM.

Take `NC(N)=NCCCC[C@H](N)C(=O)O` [L-homoarginine, reference compound]: the “inhibition of [3H]-arginine uptake” value in data set [1] (20 mM L-homoarginine, all brain regions (up to), 10 min) was “up to 99.7%”. Besides, the “inhibition of [3H]-arginine distribution” value in data set [1] (20 mM L-homoarginine, choroid plexus) amounted to 99.8%; in data set [1] (20 mM L-homoarginine, pituitary gland), 97.6%. Moreover, in data set [1] (20 mM L-homoarginine, hypothalamus, did not attain statistical significance), the “reduced uptake of [3H]-arginine” value was determined as 98.0%. In data set [1] (L-homoarginine, CSF, failed to attain statistical significance (n=3)), the “decrease in [3H]-arginine distribution” value is given as 88.4%. The “inhibition of [3H]-ADMA uptake” value in data set [2] (20 mM L-homoarginine, all brain regions (up to)) was “up to 99.2%”. The “RBrain of [3H]-ADMA in presence of inhibitor” value (shortened to “RBrain … of inhibitor”) in data set [2] (CSF, BCH 4 mM, α-methyl-D,L-tryptophan 500 μM, L-phenylalanine 200 μM, L-leucine 5 mM, harmaline 2 mM) was 2.45±0.52 ml.100g^-1; in data set [2] (setting [3]), 0.18±0.13 ml.100g^-1; in data set [2] (cerebellum, BCH 4 mM, α-methyl-D,L-tryptophan 500 μM, L-phenylalanine 200 μM, L-leucine 5 mM, harmaline 2 mM) it was 0.37±0.19 ml.100g^-1; in data set [2] (choroid plexus, BCH 4 mM, α-methyl-D,L-tryptophan 500 μM, L-phenylalanine 200 μM, L-leucine 5 mM, harmaline 2 mM), 30.73±22.20 ml.100g^-1; in data set [2] (setting [5]) it was 1.06±1.02 ml.100g^-1; in data set [2] (setting [6]), 0.20±0.13 ml.100g^-1. Besides, the “RBrain … of inhibitor” value in data set [2] (homogenate, BCH 4 mM, α-methyl-D,L-tryptophan 500 μM, L-phenylalanine 200 μM, L-leucine 5 mM, harmaline 2 mM) came to 3.74±3.52 ml.100g^-1; in data set [2] (setting [7]) it was 1.54±1.12 ml.100g^-1; in data set [2] (setting [8]), 0.49±0.40 ml.100g^-1; in data set [2] (pellet, BCH 4 mM, α-methyl-D,L-tryptophan 500 μM, L-phenylalanine 200 μM, L-leucine 5 mM, harmaline 2 mM) it was 2.32±1.65 ml.100g^-1; in data set [2] (setting [9]), 12.43±6.87 ml.100g^-1; in data set [2] (pituitary gland, BCH 4 mM, α-methyl-D,L-tryptophan 500 μM, L-phenylalanine 200 μM, L-leucine 5 mM, harmaline 2 mM), 8.57±3.99 ml.100g^-1. The “RBrain … of inhibitor” value in data set [2] (pons, BCH 4 mM, α-methyl-D,L-tryptophan 500 μM, L-phenylalanine 200 μM, L-leucine 5 mM, harmaline 2 mM) was 2.36±1.06 ml.100g^-1; in data set [2] (supernatant, BCH 4 mM, α-methyl-D,L-tryptophan 500 μM, L-phenylalanine 200 μM, L-leucine 5 mM, harmaline 2 mM), 3.43±1.95 ml.100g^-1; in data set [2] (setting [11]) it was 1.81±0.71 ml.100g^-1. Moreover, the “% inhibition of [3H]-ADMA uptake” value in data set [2] (setting [3]) is listed as 99.2%; in data set [2] (cerebellum), 97.9%; in data set [2] (setting [4]), 88.2%; in data set [2] (setting [5]), 95.7%; in data set [2] (setting [6]) it was 99.1%; in data set [2] (setting [7]) it was 94.9%. For the same molecule, the “% inhibition of [3H]-ADMA uptake” value in data set [2] (setting [8]) stood at 97.8%; in data set [2] (setting [9]), 93.6%; in data set [2] (setting [10]), 95.3%; in data set [2] (pons), 90.4%; in data set [2] (supernatant (brain parenchyma)), 65.8%; in data set [2] (setting [11]) it was 91.4%. In data set [2] (whole brain homogenate, L-phenylalanine 200 μM, L-leucine 5 mM), the “% inhibition of [3H]-ADMA uptake” value amounted to 78.9%.
`NC1(C(=O)O)CC2CCC1C2` (stereo not drawn) [BCH, 2-amino-endo-bicyclo[2.2.1]heptane-2-carboxylic acid, reference compound]: the “effect on [3H]-arginine distribution” value in data set [1] (CSF, choroid plexus and pituitary gland, 4 mM BCH or 500 μM α-methyl-D,L-tryptophan) was “no statistically significant effect”; in data set [1] (homogenate, supernatant, pellet, 4 mM BCH or 500 μM α-methyl-D,L-tryptophan) it was “no significant effect”. Moreover, the “effect on [3H]-arginine uptake” value in data set [1] (majority of brain regions sampled, 4 mM BCH or 500 μM α-methyl-D,L-tryptophan) is listed as “did not significantly affect”. In addition, the “inhibition of [3H]-ADMA uptake” value in data set [2] (brain and choroid plexus (up to), system B0,+ inhibitors) was “up to 50.0%”. Besides, in data set [2] (brain homogenate or supernatant), the “effect on [3H]-ADMA uptake” value is reported as “did not significantly affect”. Besides, the “% inhibition of [3H]-ADMA uptake” value in data set [2] (setting [3]) worked out at 37.5%; in data set [2] (setting [4]) it was 50.0%; in data set [2] (setting [6]), 36.6%; in data set [2] (setting [7]), 36.8%; in data set [2] (setting [8]), 34.2%; in data set [2] (setting [9]), 65.6%. Further, the “% inhibition of [3H]-ADMA uptake” value in data set [2] (setting [10]) is 61.5%.
